The target in test [1] is T1, hGPR38R (Homo sapiens, UniProt O43193). The test is described as follows: GPR38 FLIPR functional agonist assay. It is filed as cell-based. More on the design: expressed in transfected cells. To be noted: HEK-293 cells stably expressing the GPR38 receptor, agonist response, Fluo-4 fluorescence. On the procedure:
The potencies and efficacies of the compounds of this invention for GPR^38 can be determined by FLIPR assay performed on the human cloned receptor as described herein. It has been found, using the FLIPR functional assay, that compounds of formula (I) appear to be partial or full agonists of the GPR38 receptor.
GPR38FLIPR Functional Agonist Assay Protocol
HEK-293 cells stably expressing the GPR38 receptor were seeded (10,000 cells/well) into poly-D-lysine coated 384-well black-wall, clear-bottom microtitre plates (Becton Dickinson) 24 h prior to assay. On day of assay, cells were washed (×2) with 80 ul of assay buffer (Hanks Balanced Salts Solution (HBSS), 10 mM HEPES, 200 μM Ca^2+, 2.5 mM probenecid) using the EMBLA cell washer. After the final wash, buffer was aspirated to leave a residual volume of 30 ul on the cells. Cells were loaded with 1 μM (final) Fluo-4-AM fluorescent indicator dye (TefLabs) in assay buffer, (20 ul loading solution added to each well using the Multidrop). Plates were incubated for 1 h at 37° C., before being washed (×3) with 80 ul assay buffer using the EMBLA cell washer; 30 ul residual being left after the final wash. Plates were then assayed on a Fluorometric Imaging Plate Reader (FLIPR, Molecular Devices). Test compounds were prepared in assay buffer without probenecid, but containing 0.03% CHAPS. In the FLIPR, 10 ul of test compound was added to the cells and changes in fluorescence measured over a 2 min timeframe. Maximum change in fluorescence over baseline was used to determine agonist response and concentration response curves were constructed, using a 4-parameter logistic equation.
(§1) The following alternative procedure may also be used:
HEK-293 cells stably expressing the GPR38 receptor were seeded (30,000 cells/100 ul growth media/well) into poly-D-lysine coated 96-well black-wall, clear-bottom microtitre plates (Corning) 24 hours prior to assay. On the day of assay the cells were loaded with 2 μM (final) Fluo-4-AM fluorescent indicator dye (Molecular Probes) and 1 mM (final) probenicid in assay buffer (145 mM sodium chloride, 2.5 mM potassium chloride, 10 mM Hepes, 10 mM glucose, 1.2 mM magnesium chloride, 1.5 mM calcium chloride and 0.1% BSA) (50 ul loading solution added to each well). Plates were incubated for 1 hour at 25° C., before being washed 4 times with 100 ul assay buffer using the EMBLA cell washer; 150 ul residual being left after the final wash. The cells were then incubated at 25° C. for 20 minutes and the plates were then assayed on a Fluorometric Imaging Plate Reader (FLIPR, Molecular Devices). Test compounds were prepared in assay buffer without probenecid. In the FLIPR, 50 ul of test compound was added to the cells and changes in fluorescence measured over a 2 minute timeframe. Maximum change in fluorescence over baseline was used to determine agonist response and concentration response curves were constructed, using a 4-parameter logistic equation.
Target sequence in this assay (O43193 whole entry): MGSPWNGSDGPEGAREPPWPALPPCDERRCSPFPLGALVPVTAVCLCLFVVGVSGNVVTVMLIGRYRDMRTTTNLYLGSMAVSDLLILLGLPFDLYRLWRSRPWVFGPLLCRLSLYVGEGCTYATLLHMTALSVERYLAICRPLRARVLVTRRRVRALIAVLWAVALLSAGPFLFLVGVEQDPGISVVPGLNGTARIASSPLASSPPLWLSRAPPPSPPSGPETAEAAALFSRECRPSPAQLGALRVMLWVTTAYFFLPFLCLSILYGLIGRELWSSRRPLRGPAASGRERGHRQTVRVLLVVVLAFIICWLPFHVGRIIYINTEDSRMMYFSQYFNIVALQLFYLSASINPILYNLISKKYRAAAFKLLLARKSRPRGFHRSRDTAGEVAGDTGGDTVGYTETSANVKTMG

For test [2], the target named is T1, hGPR38R. The test is described as follows: GPR38 GTPγS functional agonist assay. It is filed as biochemical. Further details: expressed in transfected cells; host or cells: HEK293 (transient transfection; P2 membrane fractions). On the procedure:
The potencies and intrinsic activities of the compounds of this invention can also be determined according to the [35S]GTPγS functional assay which is described herein. It has been found, using the [35S]GTPγS functional assay, that compounds of formula (I) appear to be partial or full agonists of the GPR38 receptor.
GPR38GTPγS Functional Agonist Assay Protocol
For each compound being assayed, in an Opti clear bottom 96 well plate, is added:—
(a) 20 μl of test compound (or 10 μl of guanosine 5′-triphosphate (GTP) as non-specific binding control) diluted to required concentration in assay buffer (20 mM N-2-Hydroxyethylpiperazine-N′-2-ethanesulfonic acid (HEPES)+100 mM NaCl+10 mM MgCl2, pH adjusted to 7.4 with NaOH); (b) 60 μl bead/membrane/GDP mix prepared by suspending wheat germ agglutinin-polyvinyltoluene (WGA-PVT) scintillation proximity assay (SPA) beads at 100 mg/ml in assay buffer followed by mixing with membrane (prepared in accordance with the methodology described above) and diluting in assay buffer to give a final volume of 60 μl which contains 10 μg protein and 0.5 mg bead per well—mixture is pre-mixed at 4° C. for 30 min on a roller and just prior to addition to the plate, 10 μM final concentration of guanosine 5′ diphosphate (GDP—diluted in assay buffer) is added; (c) 20 μl guanosine 5′ [γ35-S]thiotriphosphate, triethylamine salt (Amersham; radioactivity concentration=37 kBq/μl or 1 mCi/ml; Specific Activity 1160 Ci/mmol) diluted to 1.9 nM in assay buffer to give 0.38 nM final.
The plate is incubated on a shaker at 25° C. for 30 min followed by centrifugation for 5 min at 1500 rpm. The plate is read between 3 and 6 h after completion of centrifuge run in a Wallac Microbeta counter on a 1 min normalised tritium count protocol. Data is analysed using a 4-parameter logistic equation. Basal activity used as minimum.
as §1
Target sequence in this assay (O43193 whole entry): as above
Target sequence in this assay (P09471 2-354 partner limits assumed): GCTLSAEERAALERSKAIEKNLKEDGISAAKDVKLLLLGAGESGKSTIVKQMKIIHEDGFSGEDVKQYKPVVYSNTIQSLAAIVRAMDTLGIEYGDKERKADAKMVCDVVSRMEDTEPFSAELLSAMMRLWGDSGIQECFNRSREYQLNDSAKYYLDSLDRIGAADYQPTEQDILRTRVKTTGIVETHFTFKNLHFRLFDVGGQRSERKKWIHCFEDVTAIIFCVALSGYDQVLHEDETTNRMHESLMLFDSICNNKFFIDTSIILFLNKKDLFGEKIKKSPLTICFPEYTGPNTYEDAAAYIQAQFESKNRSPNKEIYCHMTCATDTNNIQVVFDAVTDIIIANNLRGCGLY
Target sequence in this assay (P62873 2-340 partner limits assumed): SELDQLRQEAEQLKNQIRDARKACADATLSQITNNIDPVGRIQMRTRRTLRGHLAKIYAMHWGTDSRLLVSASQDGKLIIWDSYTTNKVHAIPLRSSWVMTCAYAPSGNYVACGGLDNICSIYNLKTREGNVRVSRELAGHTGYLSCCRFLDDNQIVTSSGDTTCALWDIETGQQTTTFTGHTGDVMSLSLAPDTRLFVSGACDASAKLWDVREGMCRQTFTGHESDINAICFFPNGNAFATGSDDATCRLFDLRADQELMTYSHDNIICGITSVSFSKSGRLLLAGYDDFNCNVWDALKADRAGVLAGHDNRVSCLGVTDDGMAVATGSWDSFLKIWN
Target sequence in this assay (P59768 2-68 partner limits assumed): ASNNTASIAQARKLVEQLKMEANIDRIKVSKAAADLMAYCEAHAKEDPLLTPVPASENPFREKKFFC
Membranes are derived from bulk cell cultures of HEK293 cell lines transiently transfected with hGPR38R and Go G-protein. P2 membranes fractions are prepared, aliquoted and stored at −80° C.
For each compound being assayed, the following is added into a white Greiner 384 well plate:—
(a) 1 μl of test compound diluted to required concentration in DMSO. (b) 20 μl bead/membrane/Saponin/GDP mix prepared as follows;—suspension of LEADseeker wheat germ agglutinin (WGA) scintillation proximity assay (SPA) beads at 25 mg/ml in assay buffer (20 mM N-2-Hydroxyethylpiperazine-N′-2-ethanesulfonic acid (HEPES)+100 mM NaCl+10 mM MgCl2, pH adjusted to 7.4 with KOH) containing saponin at 150 ug/ml. Mixing of bead suspension with membranes at 500 ug/ml (prepared in accordance with the methodology described above) and diluting in assay buffer to give a final volume of 20 μl which contains 5 μg protein and 0.25 mg bead per well.
Mixture is pre-mixed for 30 minutes on a roller and just prior to addition to the plate, 3 μM final assay concentration of guanosine 5′ diphosphate (GDP) (diluted in assay buffer) is added.
(c) 25 μl guanosine 5′ [γ35-S]thiotriphosphate, triethylamine salt (Amersham; radioactivity concentration=37 kBq/μl or 1 mCi/ml; Specific Activity 1160 Ci/mmol) diluted to 0.6 nM in assay buffer to give 0.33 nM final assay concentration.
The plate is then spun for 2 minutes at 1500 rpm and then incubated at room temperature for 4 hours. The plate is then read on a Viewlux Plux (Perkin Elmer). Data is analysed using a 4-parameter logistic equation.

[3] abbreviates: read-out: pEC50 in the FLIPR assay (converted).
[4] abbreviates: [35S]GTPγS SPA, HEK293 membranes with hGPR38R and Go G-protein, read-out: pEC50 in the GTPγS assay (converted).

SMILES strings stand for the structures. Where a name gives a salt, the structure may show the parent alone.

For `C[C@@H]1CN(Cc2ccc(-c3cccnc3C(=O)N3CCC(Nc4ccc(F)c(F)c4)CC3)cc2)C[C@H](C)N1` [Example 15, N-(3,4-difluorophenyl)-1-{[3-(4-{[(3R,5S)-3,5-dimethyl-1-piperazinyl]methyl}phenyl)-2-pyridinyl]carbonyl}-4-piperidinamine], the EC50 was < 0.316 µM at hGPR38R [1] (pEC50 in the FLIPR assay) and < 3.16 µM on hGPR38R [2].

With `C[C@@H]1CN(Cc2ccc(-c3cccnc3C(=O)N3CCC(Sc4ccc(Cl)cc4)CC3)cc2F)C[C@H](C)N1` [Example 13, (3R,5S)-1-({4-[2-({4-[(4-chlorophenyl)thio]-1-piperidinyl}carbonyl)-3-pyridinyl]-2-fluorophenyl}methyl)-3,5-dimethylpiperazine], the EC50 on hGPR38R [1] (setting [3]) was < 0.316 µM; at hGPR38R [2] (setting [4]), < 3.16 µM.

In the case of `C[C@@H]1CN(Cc2ccc(-c3cccnc3C(=O)N3CCC(Nc4cccc(F)c4)CC3)cc2F)C[C@H](C)N1` [Example 11, 1-{[3-(4-{[(3R,5S)-3,5-dimethyl-1-piperazinyl]methyl}-3-fluorophenyl)-2-pyridinyl]carbonyl}-N-(3-fluorophenyl)-4-piperidinamine], the EC50 at hGPR38R [1] (pEC50 in the FLIPR assay) is < 0.316 µM; on hGPR38R [2] it was < 3.16 µM.

Consider `COc1cc(NC2CCN(C(=O)c3ncccc3-c3ccc(CN4C[C@@H](C)N[C@@H](C)C4)c(F)c3)CC2)ccc1F` [Example 28, 1-{[3-(4-{[(3R,5S)-3,5-dimethyl-1-piperazinyl]methyl}-3-fluorophenyl)-2-pyridinyl]carbonyl}-N-[4-fluoro-3-(methyloxy)phenyl]-4-piperidinamine], for which the values for the EC50 at hGPR38R [1] (setting [3]) and at hGPR38R [2] (setting [4]) were < 0.316 µM and < 3.16 µM, respectively.

Consider `C[C@@H]1CN(Cc2ccc(-c3cccnc3C(=O)N3CCC(Nc4ccc(F)c(F)c4)CC3)cc2F)C[C@H](C)N1` [Example 12, N-(3,4-difluorophenyl)-1-{[3-(4-{[(3R,5S)-3,5-dimethyl-1-piperazinyl]methyl}-3-fluorophenyl)-2-pyridinyl]carbonyl}-4-piperidinamine], for which the EC50 is < 0.316 µM at hGPR38R [1] (pEC50 in the FLIPR assay) and < 3.16 µM on hGPR38R [2].

Regarding `C[C@@H]1CN(Cc2ccc(-c3cccnc3C(=O)N3CCC(Nc4ccc(F)cc4)CC3)cc2F)C[C@H](C)N1` [Example 9, 1-{[3-(4-{[(3R,5S)-3,5-dimethyl-1-piperazinyl]methyl}-3-fluorophenyl)-2-pyridinyl]carbonyl}-N-(4-fluorophenyl)-4-piperidinamine], the EC50 is < 0.316 µM on hGPR38R [1] (pEC50 in the FLIPR assay) and < 3.16 µM at hGPR38R [2].

`C[C@H]1CN(Cc2ccc(-c3cccnc3C(=O)N3CCC(Nc4ccc(F)cc4)CC3)cc2)CCN1` [Example 8, N-(4-Fluorophenyl)-1-{[3-(4-{[(3S)-3-methyl-1-piperazinyl]methyl}phenyl)-2-pyridinyl]carbonyl}-4-piperidinamine]: the figures for the EC50 at hGPR38R [1] (pEC50 in the FLIPR assay) and on hGPR38R [2] were < 0.316 µM and < 3.16 µM, respectively.

Regarding `Cc1nc(CN(C)C(=O)CCc2ccc(F)cc2)c(-c2ccc(CN3C[C@@H](C)N[C@@H](C)C3)cc2)s1` [Example 6, N-{[5-(4-{[(3R,5S)-3,5-Dimethyl-1-piperazinyl]methyl}phenyl)-2-methyl-1,3-thiazol-4-yl]methyl}-3-(4-fluorophenyl)-N-methylpropanamide dihydrochloride], the EC50 was < 0.316 µM at hGPR38R [1] (setting [3]) and < 3.16 µM at hGPR38R [2] (setting [4]).

Consider `C[C@@H]1CN(Cc2ccc(-c3cccnc3C(=O)N3CCC(Nc4ccccc4F)CC3)cc2)C[C@H](C)N1` [Example 31, 1-{[3-(4-{[(3R,5S)-3,5-dimethyl-1-piperazinyl]methyl}phenyl)-2-pyridinyl]carbonyl}-N-(2-fluorophenyl)-4-piperidinamine], for which the EC50 was < 1 µM at hGPR38R [1] (pEC50 in the FLIPR assay) and < 3.16 µM at hGPR38R [2].

For `C[C@@H]1CN(Cc2ccc(-c3cccnc3C(=O)N3CCC(Oc4cccc(F)c4)CC3)cc2)C[C@H](C)N1` [Example 34, (3R,5S)-1-({4-[2-({4-[(3-fluorophenyl)oxy]-1-piperidinyl}carbonyl)-3-pyridinyl]phenyl}methyl)-3,5-dimethylpiperazine], the EC50 at hGPR38R [1] (setting [3]) was < 0.316 µM; at hGPR38R [2] (setting [4]), < 3.16 µM.

For `C[C@@H]1CN(Cc2ccc(-c3cccnc3C(=O)N3CCC(Nc4cccc(F)c4)CC3)cc2)C[C@H](C)N1` [Example 10, 1-{[3-(4-{[(3R,5S)-3,5-dimethyl-1-piperazinyl]methyl}phenyl)-2-pyridinyl]carbonyl}-N-(3-fluorophenyl)-4-piperidinamine], the values for the EC50 at hGPR38R [1] (pEC50 in the FLIPR assay) and at hGPR38R [2] were < 0.316 µM and < 3.16 µM, respectively.

For `C[C@@H]1CN(Cc2ccc(-n3ccnc3C(=O)N3CCC(Nc4ccc(F)cc4)CC3)cc2)C[C@H](C)N1` [Example 22, 1 {[1-(4-{[(3R,5S)-3,5-Dimethyl-1-piperazinyl]methyl}phenyl)-1H-imidazol-2-yl]carbonyl}-N-(4-fluorophenyl)-4-piperidinamine], the EC50 is < 0.316 µM on hGPR38R [1] (pEC50 in the FLIPR assay) and < 3.16 µM at hGPR38R [2].

As to `C[C@@H]1CN(Cc2ccc(-c3cccnc3C(=O)N3CCC(Nc4cccc(F)c4)C3)cc2)C[C@H](C)N1` (stereo partly drawn) [Example 33, 1-{[3-(4-{[(3R,5S)-3,5-dimethyl-1-piperazinyl]methyl}phenyl)-2-pyridinyl]carbonyl}-N-(3-fluorophenyl)-3-pyrrolidinamine], the EC50 was < 0.316 µM at hGPR38R [1] (setting [3]) and < 3.16 µM on hGPR38R [2] (setting [4]).

Regarding `C[C@H]1CN(Cc2ccc(-c3cccnc3C(=O)N3CCC(Nc4cccc(F)c4)CC3)cc2)CCN1` [Example 14, N-(3-fluorophenyl)-1-{[3-(4-{[(3S)-3-methyl-1-piperazinyl]methyl}phenyl)-2-pyridinyl]carbonyl}-4-piperidinamine], the EC50 is < 0.316 µM at hGPR38R [1] (pEC50 in the FLIPR assay) and < 3.16 µM at hGPR38R [2].
